Among the data in patent US10011615B2, “Heterobicyclo-substituted [1,2,4]triazolo[1,5-c]quinazolin-5-amine compounds with A2A anatagonist properties” (Merck Sharp & Dohme Corp., priority 2012, dated 2018) are EC50 values, retold here.

T1 sequence (P29274 whole entry): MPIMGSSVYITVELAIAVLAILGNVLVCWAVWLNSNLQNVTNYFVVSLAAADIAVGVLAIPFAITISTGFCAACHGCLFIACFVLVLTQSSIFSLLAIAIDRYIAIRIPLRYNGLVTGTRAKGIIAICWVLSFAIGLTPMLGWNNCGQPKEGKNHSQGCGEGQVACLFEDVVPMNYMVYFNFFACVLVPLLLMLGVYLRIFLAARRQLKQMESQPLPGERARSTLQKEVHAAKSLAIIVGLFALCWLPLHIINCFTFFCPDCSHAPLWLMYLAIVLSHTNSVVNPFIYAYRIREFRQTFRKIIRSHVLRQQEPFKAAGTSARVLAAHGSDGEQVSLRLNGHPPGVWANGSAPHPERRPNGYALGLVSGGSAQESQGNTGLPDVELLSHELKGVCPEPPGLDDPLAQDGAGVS

The experiment addresses T1, human A2a receptor (Homo sapiens, UniProt P29274).
T1 construct: purchased Perkin-Elmer RBHA2AM400UA; host or cells: HEK293 cell membranes
Put plainly: A2a receptor competition binding assay using Scintillation Proximity technology. Conditions: membranes from HEK293 cells expressing human A2a receptor; 0.5 nM tritiated radioligand; SPA beads; 1 h room temperature. Here is the method: Binding affinities of compounds of the invention for the human A2a receptor were determined in a competition binding assay using Scintillation Proximity technology. Thus, 0.3 μg of membranes from HEK293 cells expressing the human A2a receptor were incubated with a compound of the invention at concentrations ranging from 3000 nM to 0.15 nM in a reaction mixture containing also 0.5 nM of a tritiated form of 5-amino-7-[2-phenethyl]-2-(furan-2-yl)-7H-pyrazolo[4,3-e][1,2,4]triazolo[1,5-c]pyrimidine (the tritiated compound) and 100 μg of wheat germ agglutin-coated yttrium silicate SPA beads for one hour at room temperature with agitation. The beads were then allowed to settle to the bottom of the wells for 1 hr, after which the membrane-associated radioactivity was determined by scintillation counting in a TopCount microplate reader. Ki values were determined using the Cheng-Prusoff equation.
Summary of Materials and Methods Used in A2a Activity Determination:
HEK293 cells expressing the human, rat, dog or monkey adenosine 2a receptor (Purchased from Perkin-Elmer # RBHA2AM400UA).
The Tritiated compound was prepared in-house by MRL Radiochemistry according to published methods.
Wheat germ agglutinin-coated yttrium silicate SPA beads (GE Healthcare#RPNQ0023). Dilute to 25 mg/ml in assay buffer.
Assay Buffer was prepared in house: Dulbecco's calcium and magnesium free phosphate buffered saline+10 mM MgCl2
Adenosine deaminase from calf intestine, 10 mg/2 ml (Roche) 10 102 105 001).
A2a antagonist standard (9-chloro-1-(2-furanyl)-[1,2,4]triazolo1,5-c]quinazolin-5-amine from Tocris Bioscience)
Make eight 1:3 serial dilutions in 100% DMSO from a 3 mM compound stock
Transfer 50 nl of compound into a 384-well OptiPlate (Perkin Elmer).
Typically, final concentrations of compound used in the assay ranged from 3000 nM to 0.152 nM.
Dilute a solution of the Tritiated compound to 1.25 nM in assay buffer. This is a 2.5× solution. The final concentration in the assay is 0.5 nM. Calculate the concentration by counting two 5 μl aliquots.
Use 0.25 ug of membrane/well. Dilute membranes to 9.7 μg/ml in assay buffer. Treat with 20 ug/ml adenosine deaminase (ADA) for 15 minutes at room temperature to degrade endogenous adenosine.
Use 100 μg/well wheat germ agglutinin-coated yttrium silicate SPA beads.
Mix ADA-treated membranes and SPA beads together for 30 min prior to assay.
To the Perkin-Elmer Optiplate-384 containing the compound titration add 20 μl of 2.5× solution of the Tritiated compound and 30 μl of the membrane-bead mixture. Incubate for one hour at room temperature with agitation.
Include total binding (assay buffer+1% DMSO) and non-specific binding (CGS15943, 1 μM) wells.
Allow the beads to settle for one hour.
A curve fitting program (i.e., Prism, Activity Base, Chemcart) is used to determine the EC50. The Ki value is calculated using the Cheng-Prusoff equation: K i=EC50/(1+(radioligand concentration/Kd)).
`COc1cccc2c1nc(N)n1nc(CCN3CCc4nccnc4C3)nc21` [Ex-55, 2-(2-(7,8-dihydropyrido[4,3-b]pyrazin-6(5H)-yl)ethyl)-7-methoxy-[1,2,4]triazolo[1,5-c]quinazolin-5-amine] came in with an EC50 of 1.8 nM. In other words, the single-digit nanomolar range.

In the case of `COc1cccc2c1nc(N)n1nc(CCN3CCc4ncsc4C3)nc21` [Ex-56, 2-(2-(6,7-dihydrothiazolo[5,4-c]pyridin-5(4H)-yl)ethyl)-7-methoxy-[1,2,4]triazolo[1,5-c]quinazolin-5-amine], the EC50 was 3.4 nM.

For `COc1cccc2c1nc(N)n1nc(CCN3CCc4scnc4C3)nc21` [Ex-57, 2-(2-(6,7-dihydrothiazolo[4,5-c]pyridin-5(4H)-yl)ethyl)-7-methoxy-[1,2,4]triazolo[1,5-c]quinazolin-5-amine], the concentration giving a half-maximal response (EC50) is 1.7 nM.

In the case of `COc1cccc2c1nc(N)n1nc(CCN3CCn4cc(C(F)(F)F)nc4C3)nc21` [Ex-58, 7-methoxy-2-(2-(2-(trifluoromethyl)-5,6-dihydroimidazo[1,2-a]pyrazin-7(8H)-yl)ethyl)-[1,2,4]triazolo[1,5-c]quinazolin-5-amine], the response was half-maximal at 0.9 nM (EC50).

`COc1cccc2c1nc(N)n1nc(CCN3CCCn4nccc43)nc21` [Ex-59, 2-(2-(6,7-dihydropyrazolo[1,5-a]pyrimidin-4(5H)-yl)ethyl)-7-methoxy-[1,2,4]triazolo[1,5-c]quinazolin-5-amine]: the EC50 is 9.6 nM.

In turn, `COc1cccc2c1nc(N)n1nc(CCN3CCCn4nc(C)cc4C3)nc21` [Ex-60, 7-methoxy-2-(2-(2-methyl-7,8-dihydro-4H-pyrazolo[1,5-a][1,4]diazepin-5(6H)-yl)ethyl)-[1,2,4]triazolo[1,5-c]quinazolin-5-amine] registered an EC50 of 2.3 nM. Compared with the last compound, the EC50 is about 4.2-fold lower.

Compound `COc1cccc2c1nc(N)n1nc(CCN3CCCn4nc(C#N)cc4C3)nc21` [Ex-61, 5-(2-(5-amino-7-methoxy-[1,2,4]triazolo[1,5-c]quinazolin-2-yl)ethyl)-5,6,7,8-tetrahydro-4H-pyrazolo[1,5-a][1,4]diazepine-2-carbonitrile] gave an EC50 of 2.5 nM.

Regarding `COc1cccc2c1nc(N)n1nc(CCN3Cc4ccccc4C(C)(C)C3)nc21` [Ex-62, 2-(2-(4,4-dimethyl-3,4-dihydroisoquinolin-2(1H)-yl)ethyl)-7-methoxy-[1,2,4]triazolo[1,5-c]quinazolin-5-amine], the response was half-maximal at 6.2 nM (EC50).

`COc1cccc2c1nc(N)n1nc(CCN3Cc4ccc(N5CCN(C)CC5)nc4C3)nc21` [Ex-63, 7-methoxy-2-(2-(2-(4-methylpiperazin-1-yl)-5H-pyrrolo[3,4-b]pyridin-6(7H)-yl)ethyl)-[1,2,4]triazolo[1,5-c]quinazolin-5-amine] registered an EC50 of 5.8 nM.

For the compound `COc1cccc2c1nc(N)n1nc(CCN3Cc4ccc(N5CCOCC5)nc4C3)nc21` [Ex-64], the EC50 turned out to be 6.9 nM.

Take `COc1cccc2c1nc(N)n1nc(CCN3Cc4ccc(N5CCCC5)nc4C3)nc21` [Ex-65]: the EC50 was 13.6 nM.

The compound `CCN1CCN(c2ccc3c(n2)CN(CCc2nc4c5cccc(OC)c5nc(N)n4n2)C3)CC1` [Ex-66] had an EC50 of 16.6 nM.

`COc1cccc2c1nc(N)n1nc(CCN3Cc4ccc(N5CCOC(C)(C)C5)nc4C3)nc21` [Ex-68]: a half-maximal response (EC50) required 7 nM.

For the compound `COc1cccc2c1nc(N)n1nc(CCN3Cc4ccc(N5C[C@@H](C)O[C@@H](C)C5)nc4C3)nc21` [Ex-69], the EC50 was determined as 5.2 nM.

Compound `COc1cccc2c1nc(N)n1nc(CCN3Cc4ccc(N5CCN(CC6CC6)CC5)nc4C3)nc21` [Ex-70] registered an EC50 of 6.8 nM.

Consider `COc1cccc2c1nc(N)n1nc(CCN3Cc4ccc(N5CCN(c6ccc(F)cc6)CC5)nc4C3)nc21` [Ex-71], for which the EC50 is 2.9 nM.

Turning to `COc1cccc2c1nc(N)n1nc(CCN3Cc4ccc(N5CCC(N6CCOCC6)CC5)nc4C3)nc21` [Ex-72], the EC50 was 5 nM.

On to `CCN1CCN(c2ccnc3c2CCN(CCc2nc4c5cccc(OC)c5nc(N)n4n2)C3)CC1` [Ex-73, 2-(2-(4-(4-ethylpiperazin-1-yl)-5,6-dihydro-1,7-naphthyridin-7(8H)-yl)ethyl)-7-methoxy-[1,2,4]triazolo[1,5-c]quinazolin-5-amine], for which the EC50 stood at 3 nM.

`CCN(CC)c1ccnc2c1CCN(CCc1nc3c4cccc(OC)c4nc(N)n3n1)C2` [Ex-74] yielded an EC50 of 4.3 nM.

For the compound `COc1cccc2c1nc(N)n1nc(CCN3CCc4c(N5CCC(F)(F)C5)ccnc4C3)nc21` [Ex-76], the EC50 was 3.7 nM.

As for `COc1cccc2c1nc(N)n1nc(CC(=O)N3Cc4cccnc4C3)nc21` [Ex-77, 2-(5-amino-7-methoxy[1,2,4]triazolo[1,5-c]quinazolin-2-yl)-1-(5,7-dihydro-6H-pyrrolo[3,4-b]pyridin-6-yl)ethanone], the midpoint of the response, the EC50, lay at 36.2 nM.

`COc1cccc2c1nc(N)n1nc(CC(=O)N3CCc4ccccc4CC3)nc21` [Ex-78] showed an EC50 of 13.8 nM. This EC50 lies about 2.6-fold lower than the previous one.

As for `Nc1nc2c(OCF)cccc2c2nc(CCN3Cc4cccnc4C3)nn12` [Ex-79, 2-(2-(5H-pyrrolo[3,4-b]pyridin-6(7H)-yl)ethyl)-7-(fluoromethoxy)-[1,2,4]triazolo[1,5-c]quinazolin-5-amine], the EC50 was 22.3 nM.

`Nc1nc2c(Cl)cccc2c2nc(CCN3Cc4ccc(F)cc4C3)nn12` [Ex-80, 7-chloro-2-(2-(5-fluoroisoindolin-2-yl)ethyl)-[1,2,4]triazolo[1,5-c]quinazolin-5-amine] had an EC50 of 12 nM.

Compound `Nc1nc2c(Cl)cccc2c2nc(CCN3CCCc4ccccc43)nn12` [Ex-82] showed an EC50 of 24.7 nM.

As to `Nc1nc2c(F)cccc2c2nc(CCN3Cc4cccnc4C3)nn12` [Ex-83, 2-[2-(5,7-dihydro-6H-pyrrolo[3,4-b]pyridin-6-yl)ethyl]-7-fluoro[1,2,4]triazolo[1,5-c]quinazolin-5-amine], it took 15.9 nM to reach a half-maximal effect (EC50).

The compound `Nc1nc2c(F)cccc2c2nc(CCN3CCCc4ccccc43)nn12` [Ex-84] had an EC50 of 6.3 nM. Against the preceding compound, the EC50 is about 2.5-fold lower.

In turn, `Nc1nc2c(F)cccc2c2nc(CCN3Cc4ccc(F)cc4C3)nn12` [Ex-85] had an EC50 of 22.2 nM.

Take `CCc1nnc2n1CCN(CCc1nc3c4cccc(F)c4nc(N)n3n1)C2` [Ex-86]: the EC50 was determined as 6.7 nM.

As to `Nc1nc2c(F)cccc2c2nc(CCN3CCc4ccccc4C3)nn12` [Ex-87], the EC50 worked out at 19.1 nM.

In turn, `Nc1nc2c(F)cccc2c2nc(CCN3Cc4cnc(C(F)(F)F)nc4C3)nn12` [Ex-88] had an EC50 of 42.3 nM.

In turn, `Nc1nc2c(F)cccc2c2nc(CCN3Cc4cccc(F)c4C3)nn12` [Ex-89] showed an EC50 of 47.7 nM.

Take `Cc1cccc2c1nc(N)n1nc(CCN3CCc4ccccc4C3)nc21` [Ex-90, 2-(2-(3,4-dihydroisoquinolin-2(1H)-yl)ethyl)-7-methyl-[1,2,4]triazolo[1,5-c]quinazolin-5-amine]: it took 27.9 nM to reach a half-maximal effect (EC50). This EC50 is about 1.7-fold lower than that of the compound before.

Compound `Nc1nc2cc(F)ccc2c2nc(CCN3Cc4ccc(F)cc4C3)nn12` [Ex-91, 8-fluoro-2-[2-(5-fluoro-1,3-dihydro-2H-isoindol-2-yl)ethyl][1,2,4]triazolo[1,5-c]quinazolin-5-amine] gave an EC50 of 26.1 nM.

The compound `Nc1nc2cc(F)ccc2c2nc(CCN3Cc4cccnc4C3)nn12` [Ex-92] showed an EC50 of 73.7 nM. This EC50 lies about 2.8-fold higher than the previous one.

Turning to `Nc1nc2cc(F)ccc2c2nc(CCN3CCc4ccccc4C3)nn12` [Ex-93], a half-maximal effect (EC50) was put at 37.5 nM.

With `Nc1nc2cc(F)ccc2c2nc(CCN3CCCc4ccccc43)nn12` [Ex-94], the EC50 was found to be 27.3 nM. This EC50 and that of the compound before are within 1.5-fold of each other.

Turning to `CCc1nnc2n1CCN(CCc1nc3c4ccc(F)cc4nc(N)n3n1)C2` [Ex-95], the EC50 worked out at 16.5 nM. This EC50 is about 1.7-fold lower than that of the compound before.
